Experimental data reported in patent US10167262B2, “Herbicidal substituted 3-arylpyrazoles” (FMC CORPORATION, priority 2014, dated 2019).
Like-named read-outs stand apart in the source and are kept apart here.

How the values were obtained:
Type in all cases: in vivo
[1] = system: ragweed (common ragweed, Ambrosia elatior); test: Test C pre-/postemergence greenhouse test, plant response rating 0-100; details: Ambrosia artemisiifolia; for pest or weed control at 62 g/ha: 62 g ai/ha; for pest or weed control at 125 g/ha: 125 g ai/ha; for pest or weed control at 250 g/ha: 250 g ai/ha; for pest or weed control at 500 g/ha: 500 g ai/ha
Outline: (§1)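 Visual rating vs controls after 13–15 d greenhouse; 0 = no effect, 100 = complete control. Pre: seeds in loam/sand, treated at planting. Post: seedlings 2–18 cm (1–4 leaf) in peat-based mix. Compounds in surfactant-containing non-phytotoxic solvent.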

[2] = system: velvetleaf (Abutilon theophrasti); test: as above; details: Abutilon theophrasti; for pest or weed control at 62 g/ha: 62 g ai/ha; for pest or weed control at 125 g/ha: 125 g ai/ha; for pest or weed control at 250 g/ha: 250 g ai/ha; for pest or weed control at 500 g/ha: 500 g ai/ha
Outline: as §1

[3] = system: morningglory (Ipomoea coccinea); test: as above; details: Ipomoea; for pest or weed control at 62 g/ha: 62 g ai/ha; for pest or weed control at 125 g/ha: 125 g ai/ha; for pest or weed control at 250 g/ha: 250 g ai/ha; for pest or weed control at 500 g/ha: 500 g ai/ha
Outline: as §1

[4] = system: large (Lg) crabgrass (Digitaria sanguinalis); test: as above; details: Digitaria sanguinalis; for pest or weed control at 62 g/ha: 62 g ai/ha; for pest or weed control at 125 g/ha: 125 g ai/ha; for pest or weed control at 250 g/ha: 250 g ai/ha; for pest or weed control at 500 g/ha: 500 g ai/ha
Outline: as §1

[5] = system: blackgrass (Alopecurus myosuroides); test: as above; details: Alopecurus myosuroides; for pest or weed control at 62 g/ha: 62 g ai/ha; for pest or weed control at 125 g/ha: 125 g ai/ha; for pest or weed control at 250 g/ha: 250 g ai/ha; for pest or weed control at 500 g/ha: 500 g ai/ha
Outline: as §1

[6] = system: giant foxtail (Setaria faberii); test: Test A pre-/postemergence greenhouse herbicide test, visual injury rating 0-100; details: for pest or weed control at 500 g/ha: 500 g ai/ha
Outline: (§2)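 Formulated in non-phytotoxic solvent with surfactant, compounds were applied pre- and postemergence simultaneously. Soil: loam–sand blend. Visual injury, 0 = no effect to 100 = complete control, ~10 days.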

[7] = system: wheat (Triticum aestivum); test: as above; details: for plant injury at 500 g/ha: 500 g ai/ha
Outline: as §2

[8] = system: pigweed (Amaranthus retroflexus); test: as above; details: for pest or weed control at 500 g/ha: 500 g ai/ha
Outline: as §2

[9] = system: velvetleaf (Abutilon theophrasti); test: as above; details: for pest or weed control at 500 g/ha: 500 g ai/ha
Outline: as §2

[10] = system: barnyardgrass (Echinochloa crus-galli); test: as above; details: for pest or weed control at 500 g/ha: 500 g ai/ha
Outline: as §2

corn (Zea mays) = test: as above; details: for plant injury at 500 g/ha: 500 g ai/ha
Outline: as §2

[11] = system: morningglory (Ipomoea spp.); test: as above; details: for pest or weed control at 500 g/ha: 500 g ai/ha
Outline: as §2

[12] = system: large (Lg) crabgrass (Digitaria sanguinalis); test: as above; details: for pest or weed control at 500 g/ha: 500 g ai/ha
Outline: as §2

[13] = post-emergence, Postemergence, read-out: Plant response rating (0 to 100), Ragweed
[14] = post-emergence, Postemergence, scale 0 to 100
[15] = pre-emergence, Preemergence, read-out: Plant response rating, Ragweed
[16] = post-emergence, Postemergence, read-out: Plant response rating (0 to 100), Velvetleaf
[17] = pre-emergence, Preemergence, read-out: Plant response rating, Velvetleaf
[18] = post-emergence, Postemergence, read-out: Plant response rating (0 to 100), Morningglory
[19] = pre-emergence, Preemergence, read-out: Plant response rating, Morningglory
[20] = post-emergence, Postemergence, read-out: Plant response rating (0 to 100), Crabgrass, Large
[21] = pre-emergence, Preemergence, read-out: Plant response rating, Crabgrass, Large
[22] = pre-emergence, Preemergence, read-out: Plant response rating, Blackgrass

COCC(=O)n1cc(C(=O)c2ccccc2)c(-c2cc(Cl)cc(Cl)c2)n1 [Compound 16, 1-[4-benzoyl-3-(3,5-dichlorophenyl)-1H-pyrazol-1-yl]-2-methoxyethanone]
60%: pest or weed control at 62 g/ha [1, 13]
100%: pest or weed control at 125 g/ha [2, 17] | pest or weed control at 250 g/ha ([2]; pre-emergence, Preemergence) | pest or weed control at 500 g/ha ([2]; pre-emergence, Preemergence) | pest or weed control at 500 g/ha ([8]; Amaranthus retroflexus, post-emergence, 240 h, Postemergence, read-out: Plant response rating (0 to 100 scale), Pigweed) | pest or weed control at 500 g/ha ([8]; Amaranthus retroflexus, pre-emergence, 240 h, Preemergence, read-out: Plant response rating (0 to 100 scale), Pigweed)
85%: pest or weed control at 125 g/ha [1, 13] | pest or weed control at 250 g/ha [1, 14] | pest or weed control at 125 g/ha [1, 15] | pest or weed control at 250 g/ha ([1]; pre-emergence, Preemergence) | pest or weed control at 62 g/ha [2, 16]
0%: pest or weed control at 62 g/ha [3, 18] | pest or weed control at 125 g/ha [3, 18] | pest or weed control at 250 g/ha [3, 14] | pest or weed control at 500 g/ha [3, 14] | pest or weed control at 62 g/ha [3, 19] | pest or weed control at 125 g/ha [3, 19] | pest or weed control at 250 g/ha ([3]; pre-emergence, Preemergence) | pest or weed control at 500 g/ha ([3]; pre-emergence, Preemergence) | pest or weed control at 62 g/ha [4, 20] | pest or weed control at 125 g/ha [4, 20] | pest or weed control at 250 g/ha [4, 14] | pest or weed control at 500 g/ha [4, 14] | pest or weed control at 62 g/ha [4, 21] | pest or weed control at 125 g/ha [4, 21] | pest or weed control at 250 g/ha ([4]; pre-emergence, Preemergence) | pest or weed control at 500 g/ha ([4]; pre-emergence, Preemergence) | pest or weed control at 62 g/ha ([5]; post-emergence, Postemergence, read-out: Plant response rating (0 to 100), Blackgrass) | pest or weed control at 125 g/ha ([5]; post-emergence, Postemergence, scale 0 to 100, read-out: Plant response rating, Blackgrass) | pest or weed control at 250 g/ha [5, 14] | pest or weed control at 500 g/ha [5, 14] | pest or weed control at 62 g/ha [5, 22] | pest or weed control at 125 g/ha [5, 22] | pest or weed control at 250 g/ha ([5]; pre-emergence, Preemergence) | pest or weed control at 500 g/ha ([5]; pre-emergence, Preemergence) | pest or weed control at 125 g/ha ([6]; Setaria faberi, post-emergence, 240 h, Postemergence, 125 g ai/ha, read-out: Plant response rating (0 to 100 scale), Foxtail, Giant) | pest or weed control at 500 g/ha ([6]; Setaria faberi, post-emergence, 240 h, Postemergence, read-out: Plant response rating (0 to 100 scale), Foxtail, Giant) | pest or weed control at 500 g/ha ([6]; Setaria faberi, pre-emergence, 240 h, Preemergence, read-out: Plant response rating (0 to 100 scale), Foxtail, Giant) | plant injury at 125 g/ha ([7]; Triticum aestivum, post-emergence, 240 h, Postemergence, 125 g ai/ha, read-out: Plant response rating (0 to 100 scale), Wheat) | plant injury at 500 g/ha ([7]; Triticum aestivum, post-emergence, 240 h, Postemergence, read-out: Plant response rating (0 to 100 scale), Wheat) | plant injury at 500 g/ha ([7]; Triticum aestivum, pre-emergence, 240 h, Preemergence, read-out: Plant response rating (0 to 100 scale), Wheat) | pest or weed control at 125 g/ha ([10]; Echinochloa crus-galli, post-emergence, 240 h, Postemergence, 125 g ai/ha, read-out: Plant response rating (0 to 100 scale), Barnyardgrass) | pest or weed control at 500 g/ha ([10]; Echinochloa crus-galli, post-emergence, 240 h, Postemergence, read-out: Plant response rating (0 to 100 scale), Barnyardgrass) | pest or weed control at 500 g/ha ([10]; Echinochloa crus-galli, pre-emergence, 240 h, Preemergence, read-out: Plant response rating (0 to 100 scale), Barnyardgrass) | plant injury at 125 g/ha (corn (Zea mays); Zea mays, post-emergence, 240 h, Postemergence, 125 g ai/ha, read-out: Plant response rating (0 to 100 scale), Corn) | plant injury at 500 g/ha (corn (Zea mays); Zea mays, post-emergence, 240 h, Postemergence, read-out: Plant response rating (0 to 100 scale), Corn) | plant injury at 500 g/ha (corn (Zea mays); Zea mays, pre-emergence, 240 h, Preemergence, read-out: Plant response rating (0 to 100 scale), Corn) | pest or weed control at 125 g/ha ([11]; Ipomoea, post-emergence, 240 h, Postemergence, 125 g ai/ha, read-out: Plant response rating (0 to 100 scale), Morningglory) | pest or weed control at 500 g/ha ([11]; Ipomoea, post-emergence, 240 h, Postemergence, read-out: Plant response rating (0 to 100 scale), Morningglory) | pest or weed control at 500 g/ha ([11]; Ipomoea, pre-emergence, 240 h, Preemergence, read-out: Plant response rating (0 to 100 scale), Morningglory) | pest or weed control at 125 g/ha ([12]; Digitaria sanguinalis, post-emergence, 240 h, Postemergence, 125 g ai/ha, read-out: Plant response rating (0 to 100 scale), Crabgrass, Large) | pest or weed control at 500 g/ha ([12]; Digitaria sanguinalis, post-emergence, 240 h, Postemergence, read-out: Plant response rating (0 to 100 scale), Crabgrass, Large) | pest or weed control at 500 g/ha ([12]; Digitaria sanguinalis, pre-emergence, 240 h, Preemergence, read-out: Plant response rating (0 to 100 scale), Crabgrass, Large)
80%: pest or weed control at 125 g/ha ([8]; Amaranthus retroflexus, post-emergence, 240 h, Postemergence, 125 g ai/ha, read-out: Plant response rating (0 to 100 scale), Pigweed) | pest or weed control at 125 g/ha ([9]; Abutilon theophrasti, post-emergence, 240 h, Postemergence, 125 g ai/ha, read-out: Plant response rating (0 to 100 scale), Velvetleaf) | pest or weed control at 500 g/ha ([9]; Abutilon theophrasti, pre-emergence, 240 h, Preemergence, read-out: Plant response rating (0 to 100 scale), Velvetleaf)
60: Pigweed plant response rating (0 = no effect, 100 = complete control) ([8]; Preemergence, 125 g ai/ha)
20: Velvetleaf plant response rating (0 = no effect, 100 = complete control) ([9]; Preemergence, 125 g ai/ha)
55%: pest or weed control at 62 g/ha [1, 15]
65%: pest or weed control at 62 g/ha [2, 17]
95%: pest or weed control at 500 g/ha [1, 14] | pest or weed control at 500 g/ha ([1]; pre-emergence, Preemergence)
0: Foxtail, Giant plant response rating (0 = no effect, 100 = complete control) ([6]; Preemergence, 125 g ai/ha) | Wheat plant response rating (0 = no effect, 100 = complete control) ([7]; Preemergence, 125 g ai/ha) | Barnyardgrass plant response rating (0 = no effect, 100 = complete control) ([10]; Preemergence, 125 g ai/ha) | Corn plant response rating (0 = no effect, 100 = complete control) (corn (Zea mays); Preemergence, 125 g ai/ha) | Morningglory plant response rating (0 = no effect, 100 = complete control) ([11]; Preemergence, 125 g ai/ha) | Crabgrass, Large plant response rating (0 = no effect, 100 = complete control) ([12]; Preemergence, 125 g ai/ha)
90%: pest or weed control at 125 g/ha [2, 16] | pest or weed control at 250 g/ha [2, 14] | pest or weed control at 500 g/ha [2, 14] | pest or weed control at 500 g/ha ([9]; Abutilon theophrasti, post-emergence, 240 h, Postemergence, read-out: Plant response rating (0 to 100 scale), Velvetleaf)
